T1: Ss gluconate dehydratase (Saccharolobus solfataricus, UniProt Q97U27)
T1 sequence (Q97U27 1-395): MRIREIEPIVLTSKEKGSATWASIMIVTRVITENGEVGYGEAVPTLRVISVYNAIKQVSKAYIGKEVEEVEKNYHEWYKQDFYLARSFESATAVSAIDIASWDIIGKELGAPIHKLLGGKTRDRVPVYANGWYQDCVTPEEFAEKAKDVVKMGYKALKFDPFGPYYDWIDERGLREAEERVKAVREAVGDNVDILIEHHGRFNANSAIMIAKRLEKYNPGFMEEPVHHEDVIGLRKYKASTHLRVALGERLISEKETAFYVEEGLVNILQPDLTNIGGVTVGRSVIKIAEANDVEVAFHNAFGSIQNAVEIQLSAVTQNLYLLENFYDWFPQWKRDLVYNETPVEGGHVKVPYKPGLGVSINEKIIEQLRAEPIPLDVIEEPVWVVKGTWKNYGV


Legend:
Ss gluconate dehydratase [1] = target: T1, Ss gluconate dehydratase; test: Substrate specificities of Ss gluconate dehydratase (semicarbazide method); type: biochemical, Sulfolobus solfataricus; parameters: made in house; host or cells: Sulfolobus solfataricus cells (native source, not recombinant); settings: for Reaction on substrate / Relative activity (%): 10 mM aldonic acid, 1 mM CoCl2, 50 mM Tri-HCl buffer pH 7.0, 30 min, 78 C; for Relative activity (%): relative to D-gluconate
Procedure: (§1) The semicarbazide method was performed as follows: an enzyme reaction of a total volume a 400 μl was incubated at 78° C. in 50 mM Tris-HCl buffer, pH 7.0, with 10 mM gluconate and an enzyme solution. After 30 min, the enzyme reaction was stopped by the addition of 100 μl 2.0 M HCl. To this solution, 300 μl of semicarbazide solution (1.0% (w/v) semicarbazide hydrochloride and 1.5% (w/v) sodium acetate dissolved in distilled water) was added and incubated at 30° C. for 15 min. The final reaction mixture was diluted with 500 μl distilled water and then measured at 250 nm. The absorbance coefficient of the semicarbazone formation toward 2-keto-3-deoxy gluconate (KDG) was taken to be 0.571×10^3 M^−1 cm^−1.
(§2) For analysis of substrate specificities of gluconate dehydrates, a 10 mM solution of each aldonic acid containing carbon chains ranging from C4 to C7 were incubated together with 40 μg/mL of purified protein. […] All experiments were performed in three plicate.

Ss gluconate dehydratase [2] = target: T1, Ss gluconate dehydratase
Procedure: as §1, §2
Biochemical and kinetic parameters for the enzyme were determined using the assay method described above under standard conditions.
Values for Vmax and Km were determined from Lineweaver bulk plots. The rate dependence on substrate concentration followed Michaelis-Meten kinetics.

[3] = Temperature profile of enzyme activity; type: biochemical
Procedure: The temperature profile for enzyme activity was determined between 40 and 100° C.

[4] = type: physicochemical
Procedure: Enzyme thermostability was determined at 80, 90, and 100° C. by incubating enzyme solution (50 μg/ml) in 50 mM Tri-HCl (pH 7.2). At an appropriate time, samples were taken and completely cooled on ice and then measured for residual activities under standard conditions. The thermostability of purified gluconate dehydrates was measured at 80, 90, and 100° C.

| Molecule | Reaction on substrate (Ss gluconate dehydratase [1]) | Relative activity (%) (Ss gluconate dehydratase [1]) | other results |
| --- | --- | --- | --- |
| O=C(O)C(O)CO [D, L-glycerate] | No reaction on the following substrates: L-arabonate, D-xylonate, D-galacturonate, D-glucitol, D-mannonate, and D, L-glycerate. | – | – |
| O=C(O)[C@@H](O)[C@H](O)[C@H](O)CO [D-Arabonate] | – | 0.7 | – |
| O=C(O)[C@H](O)[C@@H](O)[C@@H](O)[C@H](O)CO [D-Galactonate] | – | 2.8 | – |
| O=C(O)[C@H](O)[C@@H](O)[C@H](O)[C@H](O)CO [D-Gluconate] | – | 100.0 | Km (Ss gluconate dehydratase [2]; D-gluconate 0.1 to 40 mM as substrate, Lineweaver-Burk plots): 16.7 mM; turnover number (kcat) (Ss gluconate dehydratase [2]; D-gluconate as substrate): 333 s⁻¹; Vm (Ss gluconate dehydratase [2]; D-gluconate as substrate, Lineweaver-Burk plots): 34.5 units/mg; conversion (Ss gluconate dehydratase [1]; 10 mM substrate, 40 μg/mL purified protein, standard condition): 100% |
| O=C[C@H](O)[C@@H](O)[C@@H](O)[C@H](O)C(=O)O [D-galacturonate] | No reaction on the following substrates: L-arabonate, D-xylonate, D-galacturonate, D-glucitol, D-mannonate, and D, L-glycerate. | – | – |
| OC[C@@H](O)[C@@H](O)[C@H](O)[C@@H](O)CO [D-glucitol] | No reaction on the following substrates: L-arabonate, D-xylonate, D-galacturonate, D-glucitol, D-mannonate, and D, L-glycerate. | – | – |
| O=C(O)[C@@H](O)[C@@H](O)[C@H](O)[C@H](O)CO [D-mannonate] | No reaction on the following substrates: L-arabonate, D-xylonate, D-galacturonate, D-glucitol, D-mannonate, and D, L-glycerate. | – | – |
| O=C(O)[C@H](O)[C@@H](O)[C@H](O)CO [D-xylonate] | No reaction on the following substrates: L-arabonate, D-xylonate, D-galacturonate, D-glucitol, D-mannonate, and D, L-glycerate. | – | – |
| O=C(O)[C@H](O)[C@@H](O)[C@@H](O)CO [L-arabonate] | No reaction on the following substrates: L-arabonate, D-xylonate, D-galacturonate, D-glucitol, D-mannonate, and D, L-glycerate. | – | – |
| D-Galactoheptonate | – | 1.6 | – |
| L-isovalerate [D, L-isovalerate] | – | 0.25 | – |
| gluconate dehydratase: thermostable gluconate dehydratase purified from Sulfolobus solfataricus P2, SEQ ID NO:2, octamer (protein, listed as Sulfolobus solfataricus, octamer) MRIREIEPIVLTSKEKGSATWASIMIVTRVITENGEVGYGEAVPTLRVISVYNAIKQVSKAYIGKEVEEVEKNYHEWYKQDFYLARSFESATAVSAIDIASWDIIGKELGAPIHKLLGGKTRDRVPVYANGWYQDCVTPEEFAEKAKDVVKMGYKALKFDPFGPYYDWIDERGLREAEERVKAVREAVGDNVDILIEHHGRFNANSAIMIAKRLEKYNPGFMEEPVHHEDVIGLRKYKASTHLRVALGERLISEKETAFYVEEGLVNILQPDLTNIGGVTVGRSVIKIAEANDVEVAFHNAFGSIQNAVEIQLSAVTQNLYLLENFYDWFPQWKRDLVYNETPVEGGHVKVPYKPGLGVSINEKIIEQLRAEPIPLDVIEEPVWVVKGTWKNYGV | – | – | Enzyme activity below 60° C. [3]: not detectable; enzyme activity after incubation at 90° C. ([4]; 90° C., 2 hour incubation, 50 μg/ml enzyme in 50 mM Tri-HCl pH 7.2): below 50%; thermostability at 80° C. ([4]; pH 7.2): very stable over 2 hours |

From patent US8383375B2 (Posco, priority 2004, dated 2013)
